Columns and labels:
[1] = system: nonglandular gastric ulcers; assay: 42-day 2-period crossover equine health study: gastroscopic nonglandular gastric ulcer number (NGN) and severity (NGS) scores; assay type: in vivo, horse; conditions: by Day 14
Procedure: Eight healthy Thoroughbred and Thoroughbred-cross horses from the Equine Health Studies Program (EHSP) herd were used in this study. The study was performed as a 42-day 2-period crossover using a treatment group (n=8) and an untreated control (n=8).
All horses were stall-confined and fed mixed grass hay and sweet feed (OMOLENE® 100; Gray Summit, Mo.). Horses were assigned to the two treatment groups stratified by gastric ulcer score recorded on day 1 of period 1. Treated horses were fed with a Supplement composition of Example 1 above (40 g, twice daily) added to the sweet feed and control horses received no feed supplement.
Prior to beginning the study, all horses underwent physical examination. From Day 1 to Day 14, all horses were treated with omeprazole (GASTROGARD® paste, Merial Limited, Duluth, Ga.; 4 mg/kg, orally q24 h), then omeprazole was discontinued for the remainder of the study. All the horses remained stall-confined. From Day 28 to Day 35, all the horses underwent feed-deprivation, where they were muzzled and deprived of feed for 24 hours and then fed for 24 hours for a total of 96 hours to induce ulcers.
During the feed-deprivation days, the horses were fed 10% of their normal sweet feed, and the treated horses received the Supplement composition of Example 1 above (SMARTPAK® Equine, Plymouth, Mass.). From Day 35 to Day 42, all the horses returned to their normal diet to allow for recovery. The timelines of the events occurring during the period of the 42-day study were depicted in FIG. 1.
(§1) Gastroscopic examinations were performed on all the horses on Day 0, 14, 28, 35 and 42 and nonglandular gastric ulcer number (NGN) and severity (NGS) scores were assigned by the PI (FMA) who was masked to treatment (FIG. 2) (MacAllister et al. 1997). During gastroscopy, gastric juice was aspirated and pH measured.

[2] = Gastric juice pH aspirated during gastroscopy, 42-day crossover study; assay type: in vivo, horse; conditions: by Day 14, omeprazole 4 mg/kg orally q24 h
Procedure: as §1
Gastric juice pH values can be determined as follows: gastric juice of a subject animal is aspirated through the biopsy channel of an endoscope and pH is measured at specified time intervals, particularly 1 hour before and then 1 hour after administration of a therapeutic agent or Supplement composition as disclosed herein. Gastric juice pH values can be compared between the times.

[3] = system: equine ulcers; conditions: background; cited from earlier work
[4] = omeprazole paste 4 mg/kg orally q24 h Day 1-14

With `COc1ccc2nc([S+]([O-])Cc3ncc(C)c(OC)c3C)[nH]c2c1` (stereo not drawn) [omeprazole] as the compound, how does the “horses with healed gastric ulcers in each study group” value ([1]; omeprazole 4 mg/kg orally q24 h, 6/8 horses) read?
The value was 75%.

What about the NGN score [1, 4] of the same compound?
Its NGN score is “significantly decreased”.

What about the NGS score [1, 4] of the same compound?
The NGS score was “significantly decreased”.

And the “gastric juice pH” value [2]?
Its value is “increased significantly”.

What about the “gastric juice pH value in horses” value [3] of the same compound?
Its value is “increased”.

And the treating equine ulcers [3]?
Its treating equine ulcers is “effective”.
